The values that follow come from ChEMBL document CHEMBL1141846, “New verticillin and glisoprenin analogues from gliocladium catenulatum, a mycoparasite of aspergillus flavus sclerotia” (1999).

Assay [1] concerns Bacillus subtilis. Briefly: Antibacterial activity against Bacillus subtilis ATCC 6051 at 100 ug/disk by standard petri-plate assay. It counts as functional. The settings on record: read-out: IZ.
In assay [2] the test system is Staphylococcus aureus. Briefly: Antibacterial activity against Staphylococcus aureus ATCC 14053 at 100 ug/disk by standard petri-plate assay. It counts as functional. The settings on record: read-out: IZ.
Assay [3] deals with Bacillus subtilis. Briefly: Antibacterial activity against Bacillus subtilis ATCC 6051 at 50 ug/disk by standard petri-plate assay. It counts as functional, organism-based.
In assay [4] the test system is Staphylococcus aureus. Briefly: Antibacterial activity against Staphylococcus aureus ATCC 14053 at 50 ug/disk by standard petri-plate assay. It counts as functional, organism-based.

In the case of `CC(O)[C@@]12SS[C@]3(C(=O)N1C)[C@@H](O)C1([C@@]45c6ccccc6N[C@@H]4N4C(=O)[C@]6(C(C)O)SS[C@]4(C(=O)N6C)[C@H]5O)c4ccccc4N[C@@H]1N3C2=O` (stereo partly drawn) [VERTICILLIN D], the values for the zone of inhibition at 100 µg/disc in assay [1] and in assay [2] were 23 mm and 11 mm, respectively.

Regarding `CC(=O)[C@@]12SS[C@]3(C(=O)N1C)[C@@H](O)[C@]1([C@@]45c6ccccc6N[C@@H]4N4C(=O)[C@]6(C(C)=O)SS[C@]4(C(=O)N6C)[C@H]5O)c4ccccc4N[C@@H]1N3C2=O` [VERTICILLIN E], the results for the zone of inhibition at 100 µg/disc in assay [1] and in assay [2] were 23 mm and 11 mm, respectively.

`CC(=O)[C@@]12SS[C@]3(C(=O)N1C)[C@@H](O)[C@]1([C@@]45c6ccccc6N[C@@H]4N4C(=O)[C@]6(C(C)O)SS[C@]4(C(=O)N6C)[C@H]5O)c4ccccc4N[C@@H]1N3C2=O` (stereo partly drawn) [VERTICILLIN F]: the zone of inhibition at 100 µg/disc is 23 mm in assay [1] and 11 mm in assay [2].

For the molecule GENTAMICIN SULFATE, the inhibition zone (IZ) in assay [3] and in assay [4] was 25 mm throughout.
